B1: MaDA: Diels-Alderase identified from Morus alba, amino acid sequence SEQ ID No.1 (protein)
chain: MQYFSFPSSLAKITIFLIFSFVFASSANDTHEAFLECLTTRIPSNSTFTPQSIIYTPDNPSYSTILDSTTQNPRFLSSSTRNPFAIITPLHASHIQAALYCSQKHGEQMRIRSGGHDYEGLSYQSSVPFFILDLRNLSSISIDAKSKSAWVQAGATIGELYYGIAKTSLNLSFPGGVAHTIGVGGQLGGGGYGYSTRKYGLASDNVIDAQLIDARGRILDRKTMGEDLFWAIRGGGAGSFGIVLAWKIRLVNTPSTVTIFEAVRSWENNTTKKFIRRYQRRASKTDKDLTIFVGFRTTSSTDEEGNERISILTIVSATFHGSKDRLLQLVQKEFPDLGLVSEECTEMSWVRSIIHFNLFGDEVPLEVLLNRTLNFEMKAFKLRSDYVQKPIPDDVLEKLLSKLYDEETGEGYIEFFPYGGKMSKISESEIPFPYRAGNLYNLRYMVSWKDDGNITRTNMHLSWIKDAYDYMTPYVSKDPRGAYLNFRDLDIGVNVNESDYDYVAKASVWGTKYFRNNFYRLVDIKTIVDPTNFFKYEQSIPPLPPLHSAM

Tests used:
MaDA-1 = test: Enzymatic activity test for MaDA-1; type: biochemical, Morus alba; settings: Diene 3 100 μM, Dienophile 1 100 μM, SUMO-MaDA-1 27 nM, pH 8.0, 50° C., 10 min
Description: (§1) The activity of MaDA-1 was tested as follows: to a 97 μL reaction buffer (20 mm Tris-HCl, pH=8.0), 1 μL of Diene 3 (final concentration of 100 μM) and 1 […] (final concentration of 100 μM) were added, and then 1 μL of SUMO-MaDA protein (final concentration 27 nM) or SUMO-MaDA-1 (final concentration 27 nM) was added. The reaction mixture was reacted at 50° C. for 10 min, then quenched by adding 200 μL methanol, and centrifuged at 13,000 rpm for 30 min. The supernatant was analyzed by HPLC. In the control group as blank control, no protein was added.

MaDA [1] = test: Enzymatic activity test, MaDA run alongside MaDA-1; type: biochemical, Morus alba; settings: Diene 3 100 μM, Dienophile 1 100 μM, SUMO-MaDA 27 nM, pH 8.0, 50° C., 10 min
Description: as §1

MaDA [2] = test: Conversion of dienophile substrates in the enzymatic D-A reaction; type: biochemical, Morus alba
Description: In the present Example, the conversion of Dienophiles 1 and 5-9 under enzymatic D-A reaction conditions were also determined. The reaction conditions were as follows:
To 96 μL reaction buffer (20 mM Tris-HCl, pH 8.0) was added 2 μL Diene 3 (final concentration, 200 μM) and 1 μL different chalcones or their derivatives (i.e., Dienophiles 1 and 5-9, final concentration, 100 μM). Then 1 μL MaDA or SUMO-MaDA (final concentration, 540 nM) was added. The resulting mixture was reacted at 50° C. for 5 min. The reactions were terminated by the addition of 200 μl of methanol. The reaction liquid were analyzed using the HPLC analysis condition mentioned above. After three repeated experiments, the conversion of Dienophiles 1, 7, 8, 9, 5 and 6 are determined as 74%, 55%, 13%, 78%, 0%, 71% respectively, as shown in FIG. 12.

MaDA-2 = test: Activity test of MaDA-2; type: biochemical, Morus alba; settings: dienophile 100 μM, Diene 3, 22, 23 or 24 100 μM, SUMO-MaDA-2 54 nM, pH 8.0, 50° C., 5 min
MaDA-2, sequence (as listed by the source): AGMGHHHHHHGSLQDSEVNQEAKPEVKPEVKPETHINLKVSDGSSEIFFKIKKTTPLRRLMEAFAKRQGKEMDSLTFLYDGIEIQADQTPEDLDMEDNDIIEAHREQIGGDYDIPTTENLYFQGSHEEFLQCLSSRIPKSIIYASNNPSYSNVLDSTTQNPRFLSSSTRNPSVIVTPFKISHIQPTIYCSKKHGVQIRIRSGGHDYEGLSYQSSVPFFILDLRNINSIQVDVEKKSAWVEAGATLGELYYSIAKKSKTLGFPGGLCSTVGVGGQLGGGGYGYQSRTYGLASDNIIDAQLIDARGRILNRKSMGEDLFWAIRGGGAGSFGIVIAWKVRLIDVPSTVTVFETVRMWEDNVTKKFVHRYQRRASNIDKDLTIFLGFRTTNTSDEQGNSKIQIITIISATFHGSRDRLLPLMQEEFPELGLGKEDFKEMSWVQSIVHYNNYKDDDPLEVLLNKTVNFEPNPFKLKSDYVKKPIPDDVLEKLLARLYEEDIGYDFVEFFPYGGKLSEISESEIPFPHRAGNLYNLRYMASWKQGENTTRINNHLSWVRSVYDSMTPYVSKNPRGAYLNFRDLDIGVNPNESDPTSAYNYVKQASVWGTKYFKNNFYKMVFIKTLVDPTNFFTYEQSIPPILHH
Description: Under the catalyzation of MaDA-2, the reaction activity between Dienophile 1 and different dienes 3, 22, 23 and 24 was measured following the protocol as follows: to a […] reaction buffer (20 mm Tris-HCl, pH=8.0), 1 μL of Dienophile 1 (final concentration of 100 μM) and 1 μL Diene 3, 22, 23 or 24 (final concentration of 100 μM) were added, and then 1 μL of SUMO-MaDA-2 (final concentration 54 nM) was added. The reaction mixture was reacted at 50° C. for 5 min, then quenched by adding 200 μL methanol. The reaction solution was analyzed by HPLC under the analysis conditions mentioned above, and the results were shown in FIG. 20. […] However, unlike MaDA, MaDA-2 can recognize Dienophile 5 to generate corresponding natural products or their analogs.

[3] = Optimum temperature and pH of MaDA; type: biochemical; settings: Diene 3 0.1 mM, Dienophile 1 0.1 mM, 0.02 μg MaDA, 5 min, buffers pH 4.0-11.0
Description: The effects of different reaction temperatures (25, 30, 35, 40, 45, 50, 55, 60, and 70° C.) on [4+2] cyclization catalyzed by MaDA were investigated using Diene 3 and Dienophile 1 as substrates. The reaction system was as follows: the reaction mixture (100 μL) containing Diene 3 (0.1 mM) and Dienophile 1 (0.1 mM), and 0.02 μg MaDA was reacted for 5 min in Tris HCl buffer at pH 7.5 (the buffer solution was balanced at different temperatures for 15 min in advance). After the reaction, 200 μL ice-cold methanol was added to terminate the reaction, and vortex mixing was carried out. The resulting mixture was centrifuged at 15,000 g for 30 min. The supernatant was analyzed by HPLC. […] The conversion of the substrate was calculated by substituting the peak area of the product into the standard curve to calculate the reduction of the substrate.
The effects of buffer at different pH (pH 4.0-6.0, citric acid-sodium citrate buffer; 6.0-7.0, disodium hydrogen phosphate-sodium dihydrogen phosphate buffer; 7.0-9.0, Tris HCl buffer; 9.0-11.0, sodium carbonate-sodium bicarbonate buffer) on the [4+2] cyclization reaction of MaDA was investigated using Diene 3 and Dienophile 1 as substrates. […] The supernatant was analyzed by HPLC. […] The conversion of the substrate was calculated by substituting the peak area of the product into the standard curve to calculate the reduction of substrate.

Row | Molecule | consumption of substrate with MaDA-1, chalcomoracin (4) produced (MaDA-1) | consumption of substrate with MaDA, chalcomoracin (4) produced (MaDA [1]) | conversion of dienophile (MaDA [2]; Diene 3 200 μM, dienophile 100 μM, MaDA or SUMO-MaDA 540 nM, pH 8.0, 50° C., 5 min, three repeated experiments) [%] | effective recognition of dienophile by MaDA protein (MaDA [2]; same condition as the conversion test (540 nM enzyme, 50° C., 5 min)) | MaDA-2 catalysed reaction between dienophile and different dienes (MaDA-2) | optimum pH [3]
1 | C=C(C)/C=C/c1c(O)cc(-c2cc3ccc(O)cc3o2)cc1O [Diene 3] | almost completely consumed | almost completely consumed |  |  |  | 
2 | morachalcone A [Dienophile 1] | almost completely consumed | almost completely consumed | 74 | effectively recognize | can also catalyze the reaction | 
3 | B1 |  |  |  |  |  | 8.0

Source: patent US11293015B2, “Diels-Alderase and use thereof” (Peking University, priority 2020, dated 2022)
